Reference: ChEMBL document CHEMBL1150297, “Beta-amino acid substitutions and structure-based CoMFA modeling of hepatitis C virus NS3 protease inhibitors” (Bioorg Med Chem, 2008)

Assay: Inhibition of HCV NS3 protease by fluorescence plate reader
Design: species or system Hepacivirus hominis

Row | Compound | Ki
1 | COc1ccc2c(O[C@@H]3C[C@@H](C(=O)NC4(C(=O)NS(=O)(=O)c5ccccc5)CC4)N(C(=O)C[C@@H](NC(=O)OC(C)(C)C)C(C)C)C3)cc(-c3ccccc3)nc2c1 | 1200 nM
2 | COc1ccc2c(O[C@@H]3C[C@@H](C(=O)NC4(CC(=O)NS(=O)(=O)c5ccccc5)CC4)N(C(=O)[C@@H](NC(=O)OC(C)(C)C)C(C)C)C3)cc(-c3ccccc3)nc2c1 | 14000 nM
3 | COc1ccc2c(O[C@@H]3C[C@@H](C(=O)NC4(C(=O)NS(=O)(=O)c5ccccc5)CC4)N(C(=O)[C@@H](NC(=O)OC(C)(C)C)C(C)C)C3)cc(-c3ccccc3)nc2c1 | 55 nM
4 | COc1ccc2c(O[C@@H]3C[C@@H](CC(=O)NC4(C(=O)NS(=O)(=O)c5ccccc5)CC4)N(C(=O)[C@@H](NC(=O)OC(C)(C)C)C(C)C)C3)cc(-c3ccccc3)nc2c1 | 1800 nM

Next, values leading:

Row | Ki | Compound
5 | 17000 nM | COc1ccc2c(O[C@@H]3C[C@@H](C(=O)NC4(C(=O)O)CC4)N(C(=O)C[C@@H](NC(=O)OC(C)(C)C)C(C)C)C3)cc(-c3ccccc3)nc2c1
6 | 1000 nM | COc1ccc2c(O[C@@H]3C[C@@H](C(=O)NC4(C(=O)C(=O)O)CC4)N(C(=O)[C@@H](NC(=O)OC(C)(C)C)C(C)C)C3)cc(-c3ccccc3)nc2c1
7 | 61000 nM | COc1ccc2c(O[C@@H]3C[C@@H](CC(=O)NC4(C(=O)O)CC4)N(C(=O)[C@@H](NC(=O)OC(C)(C)C)C(C)C)C3)cc(-c3ccccc3)nc2c1
8 | 18000 nM | COc1ccc2c(O[C@@H]3C[C@@H](C(=O)NC4(CC(=O)O)CC4)N(C(=O)[C@@H](NC(=O)OC(C)(C)C)C(C)C)C3)cc(-c3ccccc3)nc2c1
9 | 320 nM | COc1ccc2c(O[C@@H]3C[C@@H](C(=O)NC4(C(=O)O)CC4)N(C(=O)[C@@H](NC(=O)OC(C)(C)C)C(C)C)C3)cc(-c3ccccc3)nc2c1
